The numbers were not newly measured in US20100047343A1, “MULTIPARTICULATE FORMULATION HAVING TRAMADOL IN IMMEDIATE AND CONTROLLED RELEASE FORM” (The University of Kansas, priority 2006, published 2010), which cites them from elsewhere.

The half-life is the time in which the quantity being followed falls by half. The term bioavailability denotes the share of a dose that reaches the circulation, judged against a reference dose that is usually intravenous.

The structures appear in SMILES notation. Where a name gives a salt, the structure may show the parent alone. Read-outs that look alike come from different tables or passages of the source.

The conditions of data set [1]: for accumulation: multiple dose treatment with tramadol HCl; for half-life: single oral dose of 100 mg.
The conditions of data set [2]: single oral dose of rapid release tramadol HCl (100 mg).
Setting [3] is: after oral administration of ULTRAM.

Regarding `CN(C)C[C@H]1CCCC[C@]1(O)c1cccc(O)c1` [M1 derivative], in data set [1], the accumulation entry is “approximately 2 fold” and the half-life was 9 h.

On to `COc1cccc(C2(O)CCCCC2CN(C)C)c1` (centres unmarked) [tramadol HCl], for which the solubility in water (24° C.) is listed as 790 mg/mL. Further, under “37° C.”, the “density of saturated solution” value is 1.1079, the solubility in water is given as 840 mg/mL and the “viscosity (sat'd. sol.)” value is listed as 86.5 cp. In data set [1] (setting [3]), the bioavailability is recorded as 68% and the “time to peak serum concentrations” value is no more than 2 h. In addition, in data set [2], the “duration of the analgesic effect” value is “about 6 hours”.

On to `COc1cccc(C2(O)CCCCC2CN(C)C)c1` (centres unmarked) [tramadol], for which, in data set [1], the accumulation result was “approximately 2 fold” and the half-life is 5.1 h.
